SMILES strings stand for the structures.

In general, Ki refers to the equilibrium dissociation constant of an inhibitor or competing ligand from its target. Low values mean a stronger hold on the target, high ones a looser hold on the target.

The target of one assay is T1, Adenosine receptor A1 (Rattus norvegicus, UniProt P25099).
T1 sequence (P25099 whole entry): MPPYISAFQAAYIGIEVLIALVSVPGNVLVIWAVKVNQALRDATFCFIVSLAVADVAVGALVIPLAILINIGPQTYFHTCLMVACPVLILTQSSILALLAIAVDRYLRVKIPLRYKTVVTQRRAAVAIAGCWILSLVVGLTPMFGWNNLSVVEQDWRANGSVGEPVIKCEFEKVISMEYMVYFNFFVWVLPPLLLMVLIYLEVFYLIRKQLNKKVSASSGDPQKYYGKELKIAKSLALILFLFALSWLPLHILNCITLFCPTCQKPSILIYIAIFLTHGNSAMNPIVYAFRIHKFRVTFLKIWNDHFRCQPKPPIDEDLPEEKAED
Nature of the assay: Displacement of [3H]N6-PIA (Kd, 1 nM) binding from Adenosine A1 receptor in whole rat brain membranes. The class given is cell membranes. (In general: In a radioligand displacement assay an active substance lowers the binding of a labelled ligand.)

A further assay has as its target Adenosine receptor A2a (Rattus norvegicus, UniProt P30543). Nature of the assay: Displacement of [3H]CGS-21680 (Kd, 14.9 nM) from A2A receptor in rat striatal membranes. In kind it is cell membranes, Membrane.

Adenosine receptor A2a, sequence (P30543 whole entry): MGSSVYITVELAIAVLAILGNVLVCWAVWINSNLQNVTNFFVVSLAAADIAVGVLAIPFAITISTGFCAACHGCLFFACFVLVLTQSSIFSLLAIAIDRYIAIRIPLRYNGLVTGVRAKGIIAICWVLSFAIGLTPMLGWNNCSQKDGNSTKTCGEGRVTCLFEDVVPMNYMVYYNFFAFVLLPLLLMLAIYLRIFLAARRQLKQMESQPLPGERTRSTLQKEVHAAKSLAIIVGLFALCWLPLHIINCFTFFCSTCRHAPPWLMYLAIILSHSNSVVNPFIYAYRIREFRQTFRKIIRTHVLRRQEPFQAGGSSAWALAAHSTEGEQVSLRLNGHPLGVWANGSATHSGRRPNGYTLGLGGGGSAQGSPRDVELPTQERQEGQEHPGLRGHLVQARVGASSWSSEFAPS

With `CC(Nc1nc(N)c2cnn(-c3ccccc3)c2n1)C(N)=O` (racemic), the inhibition constant (Ki) was 84 nM at Adenosine receptor A1 and 930 nM at Adenosine receptor A2a.

For `C[C@@H](Nc1nc(N)c2cnn(-c3ccccc3)c2n1)C(N)=O`, the inhibition constant Ki stood at 486 nM at Adenosine receptor A1 and 2120 nM at Adenosine receptor A2a.

`C[C@H](Nc1nc(N)c2cnn(-c3ccccc3)c2n1)C(N)=O`: the inhibition constant (Ki) at Adenosine receptor A1 was 49.1 nM; at Adenosine receptor A2a it was 648 nM.

The values are drawn from ChEMBL document CHEMBL1133781, “High-pressure synthesis of enantiomerically pure C-6 substituted pyrazol” (Bioorg Med Chem Lett, 2001).
